Data taken from patent publication US10076505B2, “Inhalation formulations of Treprostinil” (priority 2003, dated 2018).
Values joined by “and” are separate entries in the source; they are usually repeats but may differ in a detail not shown here. Equal values may be shown once.

Tests used:
[1] = system: patients with class III or class IV heart failure; conditions: cited from earlier work
[2] = system: critical limb ischemia; experiment: Open-label study of subcutaneous treprostinil in critical limb ischemia (Example X); type: in vivo, human
Description: The planned enrollment was ten patients. All patients were to have Fontaine Stage III-IV or Rutherford Class 4-6 disease and ankle brachial indexes (ABI) from 0-0.55 in the most affected limb or the limb containing the reference ischemic wound for wound healing assessments. […] Any condition or abnormal laboratory value which, based on information in the treprostinil package insert, would constitute an unacceptable risk to the patient's safety, also was an exclusion criterion. Patients could not have been in an investigational trial within the past 30 days or been a non-responder to chronic prostanoid treatment in the past 30 days.
After the completion of baseline assessments, treprostinil therapy was initiated in the clinic. […] Patients and/or a caregiver were trained to administer treprostinil on an outpatient basis using an ambulatory subcutaneous infusion pump (Minimed, Sylmar, Calif., Model 407C). Each patient was to be initiated at a dose of 2.5 ng/kg/min or lower, with the dose titrated based on tolerability. Dose increases were to be 1.25-2.5 ng/kg/min per week. The maximum allowed dose was 15 ng/kg/min and the minimum allowed dose was 0.625 ng/kg/min. The patients were instructed to change the subcutaneous infusion site every three days.
Patients returned to the clinic for assessments at Weeks 2, 6, and 12. Treprostinil treatment was terminated by gradually decreasing the infusion rate (over a period of 1-4 hours, as clinically indicated) after the Week 12 visit assessments were completed.
Safety was assessed in all patients using adverse event (AEs) and physical examination findings. Signs and symptoms of CLI or worsening CLI were not considered to be AEs unless found to be different in causality, intensity, or frequency.
Rest pain was assessed in all patients using a visual analog scale (VAS) for rest pain. The patients were asked to rate their leg pain on a scale of 0-10 with 0 reflecting no pain and 10 reflecting the worst pain. The scale was printed and the patients were asked to place a mark on the number that reflected their pain experience. Patients were asked to rate the worst pain they had experienced since the previous assessment and their average pain during that time frame. Analgesic medication use was assessed by the investigator as unchanged, increased, decreased, or discontinued.
Wound assessments were to be conducted in patients who had at least one ischemic wound at baseline. If the patient had multiple ischemic wounds, then one or two (usually the largest or most severe wounds) were be selected as reference wounds. The selected wound(s) was photographed for documentation. When possible, the outside edge of the wound(s) was traced for area measurement. The tracings were used to calculate wound area by measuring the length and width of the wound. Not all wounds were of the nature that tracings were possible for example, wounds between toes or on the heel with extensive tissue loss were not traced. These wounds were described and photographed.
In patients who had wounds other than those chosen as reference wounds, the overall status (i.e., worse, the same, improved, or healed) of each additional wound also was documented at each study visit. Any new wounds that occurred during the study also were carefully documented.

[3] = individual patients 1-10 (one table line each), versus baseline pain medication, listed as treprostinil

CCCCC[C@H](O)CC[C@@H]1[C@H]2Cc3cccc(OCC(=O)O)c3C[C@H]2C[C@H]1O [UT-15, 9-deoxy-2′,9-alpha-methano-3-oxa-4,5,6-trinor-3,7-(1′,3′-interphenylene)-13,14-dihydro-prostaglandin F1]
vasodilator effects [1]: vasodilator effects | wounds during the twelve weeks of drug treatment ([2]; Patient 3): remained stable | average rest pain score ([2]; Patient 3, 7 at baseline): 4 | worst rest pain score ([2]; Patient 3, reduced from 8): 4 | reduction in average rest pain ([2]; baseline to week 12): 58% | reduction in the worst rest pain ([2]; baseline to week 12): 64% | relation of SAEs to treprostinil ([2]; cholecystectomy, worsening congestive heart failure): unlikely to be related | pain relief ([2]; conclusion of study): pain relief in all patients | Pain Medication Consumption Week 2 [2, 3]: No change (5×) and Less (4×) and PERCOCET ® | Pain Medication Consumption Week 6 [2, 3]: Less (5×) and Increased and No change (2×) and None and Discontinued | Pain Medication Consumption Week 12 [2, 3]: Darvocet and PERCOCET ® and None (2×) and No change (4×) | patients who discontinued drug prematurely ([2]; of ten patients): Two | patients with complete healing of their wounds ([2]; of ten patients): Three | patients with diarrhea ([2]; of ten patients): one | patients with mild headache ([2]; of ten patients): one | patients with mild jaw pain ([2]; of ten patients): Two | week of complete wound closure ([2]; patient 5, 15 ng/kg/min): 6 week | week of complete resolution of rest pain ([2]; patient 7, 7.5 ng/kg/min): 6 week | week of complete wound closure ([2]; patient 7, 7.5 ng/kg/min): 12 week | week of complete resolution of ischemic rest pain ([2]; patient 10, 15 ng/kg/min): 2 week | week of complete wound closure ([2]; patient 10, 15 ng/kg/min): 12 week | new wounds during the trial ([2]; ten patients): No patient developed a new wound | serious adverse events (SAEs) ([2]; ten patients): two | most common side effect ([2]; ten patients, sc infusion up to 15 ng/kg/min): infusion site pain | patients switched to a non-sedating, non-narcotic pain medication ([2]; week 12): one | patients with complete pain relief who discontinued all pain medications ([2]; week 12): two | patients with increased consumption of pain medication ([2]; week 12): one | patients with medication usage unchanged from baseline ([2]; week 12): 4 patients | patients with reduced pain medication consumption ([2]; week 12): three | average rest pain, mean VAS (0-10) ([2]; week 12, baseline mean 7.1): 2.4 | worst rest pain, mean VAS (0-10) ([2]; week 12, baseline mean 8.4): 2.5
